{"source": "patent US10717716B2", "about": "“1,3,4-oxadiazole derivative compounds as histone deacetylase 6 inhibitor, and the pharmaceutical composition comprising the same” (Chong Kun Dang Pharmaceutical Corp., priority 2015, dated 2020)", "target": "T1, human recombinant HDAC6 (Homo sapiens, UniProt Q9UBN7)", "T1 construct": "purchased Calbiochem 382180", "T1 sequence (Q9UBN7 1-1215)": "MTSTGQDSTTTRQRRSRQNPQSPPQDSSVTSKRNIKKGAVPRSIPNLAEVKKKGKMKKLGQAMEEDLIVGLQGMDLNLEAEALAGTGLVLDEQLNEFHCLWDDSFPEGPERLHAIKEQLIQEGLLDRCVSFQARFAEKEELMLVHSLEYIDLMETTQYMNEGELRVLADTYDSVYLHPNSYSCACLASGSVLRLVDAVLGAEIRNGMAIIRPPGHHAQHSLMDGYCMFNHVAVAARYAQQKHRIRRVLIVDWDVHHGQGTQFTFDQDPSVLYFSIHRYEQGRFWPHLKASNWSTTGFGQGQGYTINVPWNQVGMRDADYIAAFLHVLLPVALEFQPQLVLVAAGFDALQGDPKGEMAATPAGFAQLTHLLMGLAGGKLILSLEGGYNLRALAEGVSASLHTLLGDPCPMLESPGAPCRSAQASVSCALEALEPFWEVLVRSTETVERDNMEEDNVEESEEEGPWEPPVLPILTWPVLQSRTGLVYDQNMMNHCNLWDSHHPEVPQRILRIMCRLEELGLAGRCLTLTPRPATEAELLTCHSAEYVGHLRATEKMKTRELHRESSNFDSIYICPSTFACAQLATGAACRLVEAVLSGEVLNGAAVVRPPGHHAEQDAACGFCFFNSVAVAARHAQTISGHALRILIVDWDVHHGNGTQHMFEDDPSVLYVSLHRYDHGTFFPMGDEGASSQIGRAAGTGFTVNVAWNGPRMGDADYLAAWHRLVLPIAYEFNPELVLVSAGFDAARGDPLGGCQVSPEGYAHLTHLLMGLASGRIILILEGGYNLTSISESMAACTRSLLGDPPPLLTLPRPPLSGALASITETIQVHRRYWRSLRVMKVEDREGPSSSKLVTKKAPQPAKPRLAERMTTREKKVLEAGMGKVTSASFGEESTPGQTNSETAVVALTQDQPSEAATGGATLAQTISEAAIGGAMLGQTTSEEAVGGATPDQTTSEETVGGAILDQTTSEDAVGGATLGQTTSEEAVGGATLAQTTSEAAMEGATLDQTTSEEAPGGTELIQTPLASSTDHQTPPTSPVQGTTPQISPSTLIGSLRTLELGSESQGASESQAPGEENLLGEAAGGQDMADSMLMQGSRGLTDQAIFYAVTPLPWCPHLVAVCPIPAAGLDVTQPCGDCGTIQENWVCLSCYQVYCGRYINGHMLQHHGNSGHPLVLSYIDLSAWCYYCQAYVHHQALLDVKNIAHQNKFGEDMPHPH", "assay": "HDAC6 enzyme activity inhibition assay (HDAC Fluorimetric Drug Discovery Kit)", "assay_type": "biochemical", "settings": "for HDAC6 selectivity (fold): HDAC6 over HDAC1; for IC50: human recombinant HDAC6, same protocol as HDAC1, read-out: HDAC6", "protocol": "In order to examine the HDAC6 selectivity of the compounds of formula I of the present invention by HDAC1 and HDAC6 enzymatic activity inhibition assays, an experiment was performed using a conventional substance as a control.\nHDAC enzyme activity was measured using a HDAC Fluorimetric Drug Discovery Kit (BML-AK511, 516, Enzo Life Science). For the HDAC1 enzyme activity test, human recombinant HDAC1 (BML-SE456) was used as an enzyme source, and Fluor de Lys®-“SIRT1 (BNL-KI177) was used as a substrate. A 5-fold dilution of the compound was seeded into a 96-well plate, and then 0.3 μg of the enzyme and 10 μM of the substrate were added to each well of the plate and allowed to react at 30° C. for 60 minutes. Then, Fluor de Lys®-Developer II (BML-KI176) was added thereto and allowed to react for 30 minutes, after which the fluorescence value (Ex 360, Em 460) was measured using a multi-plate reader (Flexstation 3, Molecular Device). The HDAC6 enzyme was tested using human recombinant HDAC6 (382180) (Calbiochem) according to the same protocol as the HDAC1 enzyme activity test method. Based on the resulting values, each IC5, value was calculated using GraphPad Prism4.0 program."}
{"smiles": "CN1CCN(C(=O)N(Cc2ccc(-c3nnc(C(F)(F)F)o3)cc2)c2ccccc2)CC1", "note": "[Compound 21285, 4-methyl-N-phenyl-N-(4-(5-(trifluoromethyl)-1,3,4-oxadiazol-2-yl)benzyl)piperazine-1-carboxamide]", "values": [{"measurement": "HDAC6 selectivity (fold)", "value": 91, "unit": "fold"}, {"measurement": "IC50", "value": 110, "unit": "nM"}]}
{"smiles": "O=C(N1CCOCC1)N(Cc1ccc(-c2nnc(C(F)(F)F)o2)cc1F)c1ccccc1", "note": "[Compound 21318, N-(2-fluoro-4-(5-(trifluoromethyl)-1,3,4-oxadiazol-2-yl)benzyl)-N-phenylmorpholine-4-carboxamide]", "values": [{"measurement": "HDAC6 selectivity (fold)", "value": 145, "unit": "fold"}, {"measurement": "IC50", "value": 69, "unit": "nM"}]}
{"smiles": "O=C(N1CCOCC1)N(Cc1ccc(-c2nnc(C(F)(F)F)o2)c(F)c1)c1ccccc1", "note": "[Compound 21319, N-(3-fluoro-4-(5-(trifluoromethyl)-1,3,4-oxadiazol-2-yl)benzyl)-N-phenylmorpholine-4-carboxamide]", "values": [{"measurement": "HDAC6 selectivity (fold)", "value": 52, "unit": "fold"}, {"measurement": "IC50", "value": 192, "unit": "nM"}]}
{"smiles": "O=C(N1CCOCC1)N(Cc1ccc(-c2nnc(C(F)F)o2)cc1)c1ccccc1", "note": "[Compound 21325, N-(4-(5-(difluoromethyl)-1,3,4-oxadiazol-2-yl)benzyl)-N-phenylmorpholine-4-carboxamide]", "values": [{"measurement": "HDAC6 selectivity (fold)", "value": 204, "unit": "fold"}, {"measurement": "IC50", "value": 49, "unit": "nM"}]}
{"smiles": "O=C(N1CCOCC1)N(Cc1ccc(CCc2nnc(C(F)(F)F)o2)cc1)c1ccccc1", "note": "[Compound 21327, N-phenyl-N-(4-(2-(5-(trifluoromethyl)-1,3,4-oxadiazol-2-yl)ethyl)benzyl)morpholine-4-carboxamide]", "values": [{"measurement": "HDAC6 selectivity (fold)", "value": 1, "unit": "fold"}]}
{"smiles": "O=C(N1CCOCC1)N(Cc1cccc(-c2nnc(C(F)(F)F)o2)c1)c1ccccc1", "note": "[Compound 21329, N-phenyl-N-(3-(5-(trifluoromethyl)-1,3,4-oxadiazol-2-yl)benzyl)morpholine-4-carboxamide]", "values": [{"measurement": "HDAC6 selectivity (fold)", "value": 1, "unit": "fold"}]}
{"smiles": "O=C(N1CCOCC1)N(Cc1ccc(-c2nnc(C(F)(F)F)o2)nc1)c1ccccc1", "note": "[Compound 21333, N-phenyl-N-((6-(5-(trifluoromethyl)-1,3,4-oxadiazol-2-yl)pyridin-3-yl)methyl)morpholine-4-carboxamide]", "values": [{"measurement": "HDAC6 selectivity (fold)", "value": 1, "unit": "fold"}]}
{"smiles": "O=C(N1CCOCC1)N(Cc1ccc(-c2nnc(C(F)(F)F)o2)cn1)c1ccccc1", "note": "[Compound 21336, N-phenyl-N-((5-(5-(trifluoromethyl)-1,3,4-oxadiazol-2-yl)pyridin-2-yl)methyl)morpholine-4-carboxamide]", "values": [{"measurement": "HDAC6 selectivity (fold)", "value": 105, "unit": "fold"}, {"measurement": "IC50", "value": 95, "unit": "nM"}]}
{"smiles": "O=C(N1CCOCC1)N(Cc1ccc(-c2nnc(C(F)F)o2)cc1F)c1ccccc1", "note": "[Compound 21337, N-(4-(5-(difluoromethyl)-1,3,4-oxadiazol-2-yl)-2-fluorobenzyl)-N-phenylmorpholine-4-carboxamide]", "values": [{"measurement": "HDAC6 selectivity (fold)", "value": 357, "unit": "fold"}, {"measurement": "IC50", "value": 28, "unit": "nM"}]}
{"smiles": "O=C(NC1CCC1)N(Cc1ccc(-c2nnc(C(F)(F)F)o2)cc1)c1ccccc1", "note": "[Compound 21340, 3-Cyclobutyl-1-phenyl-1-(4-(5-(trifluoromethyl)-1,3,4-oxadiazol-2-yl)benzyl)urea]", "values": [{"measurement": "HDAC6 selectivity (fold)", "value": 12, "unit": "fold"}, {"measurement": "IC50", "value": 836, "unit": "nM"}]}
{"smiles": "O=C(NC1CCCC1)N(Cc1ccc(-c2nnc(C(F)(F)F)o2)cc1)c1ccccc1", "note": "[Compound 21341, 3-Cyclopentyl-1-phenyl-1-(4-(5-(trifluoromethyl)-1,3,4-oxadiazol-2-yl)benzyl)urea]", "values": [{"measurement": "HDAC6 selectivity (fold)", "value": 8, "unit": "fold"}, {"measurement": "IC50", "value": 1190, "unit": "nM"}]}
{"smiles": "O=C(NC1CCCCC1)N(Cc1ccc(-c2nnc(C(F)(F)F)o2)cc1)c1ccccc1", "note": "[Compound 21342, 3-Cyclohexyl-1-phenyl-1-(4-(5-(trifluoromethyl)-1,3,4-oxadiazol-2-yl)benzyl)urea]", "values": [{"measurement": "HDAC6 selectivity (fold)", "value": 5, "unit": "fold"}, {"measurement": "IC50", "value": 1990, "unit": "nM"}]}
{"smiles": "COc1cc(-c2nnc(C(F)(F)F)o2)ccc1CN(C(=O)N1CCOCC1)c1ccccc1", "note": "[Compound 21343, N-(2-methoxy-4-(5-(trifluoromethyl)-1,3,4-oxadiazol-2-yl)benzyl)-N-phenylmorpholine-4-carboxamide]", "values": [{"measurement": "HDAC6 selectivity (fold)", "value": 1, "unit": "fold"}, {"measurement": "IC50", "value": 10700, "unit": "nM"}]}
{"smiles": "O=C(N1CCN(Cc2ccccc2)CC1)N(Cc1ccc(-c2nnc(C(F)(F)F)o2)cc1)c1ccccc1", "note": "[Compound 21344, 4-Benzyl-N-phenyl-N-(4-(5-(trifluoromethyl)-1,3,4-oxadiazol-2-yl)benzyl)piperazine-1-carboxamide]", "values": [{"measurement": "HDAC6 selectivity (fold)", "value": 12, "unit": "fold"}, {"measurement": "IC50", "value": 830, "unit": "nM"}]}
{"smiles": "COCCN1CCN(C(=O)N(Cc2ccc(-c3nnc(C(F)(F)F)o3)cc2)c2ccccc2)CC1", "note": "[Compound 21345, 4-(2-Methoxyethyl)-N-phenyl-N-(4-(5-(trifluoromethyl)-1,3,4-oxadiazol-2-yl)benzyl)piperazine-1-carboxamide]", "values": [{"measurement": "HDAC6 selectivity (fold)", "value": 54, "unit": "fold"}, {"measurement": "IC50", "value": 185, "unit": "nM"}]}
{"smiles": "CCN1CCN(C(=O)N(Cc2ccc(-c3nnc(C(F)(F)F)o3)cc2)c2ccccc2)CC1", "note": "[Compound 21346, 4-Ethyl-N-phenyl-N-(4-(5-(trifluoromethyl)-1,3,4-oxadiazol-2-yl)benzyl)piperazine-1-carboxamide]", "values": [{"measurement": "HDAC6 selectivity (fold)", "value": 58, "unit": "fold"}, {"measurement": "IC50", "value": 173, "unit": "nM"}]}
{"smiles": "CC(C)N1CCN(C(=O)N(Cc2ccc(-c3nnc(C(F)(F)F)o3)cc2)c2ccccc2)CC1", "note": "[Compound 21347, 4-Isopropyl-N-phenyl-N-(4-(5-(trifluoromethyl)-1,3,4-oxadiazol-2-yl)benzyl)piperazine-1-carboxamide]", "values": [{"measurement": "HDAC6 selectivity (fold)", "value": 55, "unit": "fold"}, {"measurement": "IC50", "value": 183, "unit": "nM"}]}
{"smiles": "O=C(N1CCOCC1)N(CCc1ccc(-c2nnc(C(F)(F)F)o2)cc1)c1ccccc1", "note": "[Compound 21348, N-phenyl-N-(4-(5-(trifluoromethyl)-1,3,4-oxadiazol-2-yl)phenethyl)morpholine-4-carboxamide]", "values": [{"measurement": "HDAC6 selectivity (fold)", "value": 1, "unit": "fold"}, {"measurement": "IC50", "value": 8360, "unit": "nM"}]}
{"smiles": "O=C(N1CCC1)N(Cc1ccc(-c2nnc(C(F)(F)F)o2)cc1)c1ccccc1", "note": "[Compound 21349, N-phenyl-N-(4-(5-(trifluoromethyl)-1,3,4-oxadiazol-2-yl)benzyl)azetidine-1-carboxamide]", "values": [{"measurement": "HDAC6 selectivity (fold)", "value": 23, "unit": "fold"}, {"measurement": "IC50", "value": 430, "unit": "nM"}]}
{"smiles": "O=C(N1CCCC1)N(Cc1ccc(-c2nnc(C(F)(F)F)o2)cc1)c1ccccc1", "note": "[Compound 21350, N-phenyl-N-(4-(5-(trifluoromethyl)-1,3,4-oxadiazol-2-yl)benzyl)pyrrolidine-1-carboxamide]", "values": [{"measurement": "HDAC6 selectivity (fold)", "value": 19, "unit": "fold"}, {"measurement": "IC50", "value": 530, "unit": "nM"}]}
{"smiles": "O=C(N1CCCCC1)N(Cc1ccc(-c2nnc(C(F)(F)F)o2)cc1)c1ccccc1", "note": "[Compound 21351, N-phenyl-N-(4-(5-(trifluoromethyl)-1,3,4-oxadiazol-2-yl)benzyl)piperidine-1-carboxamide]", "values": [{"measurement": "HDAC6 selectivity (fold)", "value": 38, "unit": "fold"}, {"measurement": "IC50", "value": 261, "unit": "nM"}]}
{"smiles": "CC(C)(C)OC(=O)N1CCN(C(=O)N(Cc2ccc(-c3nnc(C(F)(F)F)o3)cc2)c2ccccc2)CC1", "note": "[Compound 21352, Tert-butyl 4-(phenyl(4-(5-(trifluoromethyl)-1,3,4-oxadiazol-2-yl)benzyl)carbamoyl)piperazine-1-carboxylate]", "values": [{"measurement": "HDAC6 selectivity (fold)", "value": 9, "unit": "fold"}, {"measurement": "IC50", "value": 1100, "unit": "nM"}]}
